Laboratory results reported in patent publication EP4154876B1, “CBX7 INHIBITOR FOR USE IN THE TREATMENT AND/OR PREVENTION OF A BLOOD VESSEL DISORDER” (Universität Potsdam, priority 2021, dated 2023).
Where a SMILES comes first, the peptide text is derived from it. [ ]: non-standard residue; d: D form. The star is where a group is joined. Benzoyl(4-tBu) = CC(C)(C)c1ccc(C(=O)*)cc1; Lys(Et2) = CCN(CC)CCCC[C@H](N)C(=O)O

Legend:
[1] = test system: ChDs from other CBX proteins including CBX1/3/5 (HP1β/γ/α) and CBX2/4/6/8; settings: cited from earlier work
ccm2 mutants = assay: Pharmacological treatment of zebrafish ccm2 mutants (CCM disease model); type: in vivo; settings: for posterior caudal vein plexus: ccm2 mutants after treatment with inhibitor, Fig. 4A right column; for heart phenotype (strongly enlarged and ballooning heart): ccm2 mutants treated with inhibitor, Fig. 4A left column
Procedure: In ccm2 mutants the heart is strongly enlarged and ballooning. In ccm2 mutants treated with MS37452 or MS351, this phenotype is suppressed and is reminiscent of wild type. Similarly, the posterior caudal vein plexus in ccm2 mutants is fenestrated after treatment with the inhibitors. Quantifications of these phenotype classes are in B). To elucidate whether a pharmacological suppression of Cbx7a has the same effect on the zebrafish CCM model, specific small compound inhibitors of CBX7 were tested (MS37452 and MS351). Both inhibitors block the binding of CBX7 to histone modifications on genomic DNA and suppress the epigenetic function of this protein within the Polycomb repressive complex (PRC1) (Fig. 3). Both inhibitors suppress the expression of the CCM phenotype in zebrafish disease models (Fig. 4). The effects of both inhibitors are reminiscent of the genetic knockout of cbx7a in ccm2 mutants. Heart phenotypes is shown in Fig. 4A left column while the region of the posterior caudal vein plexus in Fig. 4A right column. In ccm2 mutants the heart is strongly enlarged and ballooning. In ccm2 mutants treated with MS37452 or MS351, this phenotype is suppressed and is reminiscent of wild type. Similarly, the posterior caudal vein plexus in ccm2 mutants is fenestrated after treatment with the inhibitors. Quantifications of these phenotype classes are shown Fig. 4B. The y-axis represents the ratio of the amounts of embryos with suppressed ballooning heart and abnormal caudal vein plexus phenotype to the amounts of embryos with ballooning heart and abnormal caudal vein plexus phenotype.

CBX7ChD = target: T1, CBX7ChD (Homo sapiens, UniProt O95931); settings: estimated; determined by NMR titration; CBX7ChD alone; cited from earlier work
T1 sequence (O95931 11-69 limits assumed): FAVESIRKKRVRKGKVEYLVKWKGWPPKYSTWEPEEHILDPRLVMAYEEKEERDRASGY

chromodomains of CBX7 = target: T2, chromodomains of CBX7 (Homo sapiens, UniProt O95931); settings: CBX7 chromodomain; cited from earlier work
T2 sequence (O95931 11-69 limits assumed): T1 sequence (O95931 11-69 limits assumed)

Structure (SMILES) | binding to ChDs from other CBX proteins [1] | posterior caudal vein plexus (ccm2 mutants) | heart phenotype (strongly enlarged and ballooning heart) (ccm2 mutants) | Kd (CBX7ChD) | Kd (chromodomains of CBX7)
Cc1ccccc1Cn1c(=N)n(CC(O)c2ccc(Cl)c(Cl)c2)c2ccccc21.Cl (stereo not shown) [MS351] | does not bind | fenestrated | suppressed | ~500 µM | 
COc1cccc(C(=O)N2CCN(C(=O)COc3cccc(C)c3)CC2)c1OC [MS37452] |  | fenestrated | suppressed |  | 
CCN(CC)CCCC[C@H](NC(=O)[C@H](CC(C)C)NC(=O)[C@H](C)NC(=O)[C@H](Cc1ccccc1)NC(=O)c1ccc(C(C)(C)C)cc1)C(=O)N[C@@H](CO)C(=O)OC [UNC3866] ({Benzoyl(4-tBu)}-FAL[Lys(Et2)]S-OMe) |  |  |  |  | ~0.1 µM
